Common to all, as to assay type: cell-based
In assay [1] the target is N-type calcium channel subunits (α1B, α2δ, and β3a) (Homo sapiens, UniProt Q00975). Description: Block of Cav2.2 channel, whole cell voltage clamp, manual and PatchXpress. Conditions: Table 5; table follows Assay Example 3 (whole cell voltage clamp / PatchXpress); assay not given. On the procedure: Cells are grown either on poly-D-lysine coated coverglass (manual EP) or in TIS culture plates (PatchXpress). For the PatchExpress, cells are released from the flask using trypsin. In both cases, the […] solution is (in mM): 130 […], 10 EGTA, 10 HEPES, 2 MgCl2, 3 MgATP, pH 7.3 with CsOH.
Microelectrodes are fabricated from borosilicate glass and fire-polished. […] The reference electrode is a silver-silver chloride pellet. Voltages are not corrected for the liquid junction potential between the internal and external solutions and leak is subtracted using the P/n procedure. Solutions are applied to cells by bath perfusion via gravity. The experimental chamber volume is—0.2 mL. and the perfusion rate is 0.5-2 mL/min. Flow of suction through the chamber is maintained at all times. Measurement of current amplitudes is performed with […] software (HEKA Elektronik).
PatchXpress (Molecular Devices) is a 16-well whole-cell automated patch clamp device that operates asynchronously with fully integrated fluidics. […] Capacitance and series resistance compensation is automated. No correction for liquid junction potentials is employed. Leak is subtracted using the P/n procedure. Compounds are added to cells with a pipettor from a 96-well compound plate. Voltage protocols and the recording of membrane currents are performed using the PatchXpress software/hardware system. Current amplitudes are calculated with DataXpress software.
In both manual and automated patch clamp, cells are voltage clamped at […] or −90 m V and 50 ms pulses to +20 mV are applied every 15 sec (0.067 Hz). Compounds are added in escalating doses to measure % inhibition. Percent inhibition is calculated from the ratio of the curerent amplitude in the presence and absence of compound. When multiple doses are achieved per cell, IC50 values are calculated.

A further assay deals with CAv1.2 (Homo sapiens, UniProt Q13936). Description: FLIPR data, CAv1.2 channel blocking (Table 6).
For a further assay, the target named is T-type calcium channel (Homo sapiens, UniProt O95180). Nature of the assay: T-type channel blocking, FLIPR data (Table 6). Conditions: for CAv3.2 IC50 Ratio closed/inact.: CAv3.2, ratio closed/inactivated IC50. An excerpt:
Another method, high-throughput spectrophotometric assay, utilizes loading of the cell lines with a fluorescent dye sensitive to intracellular calcium concentration and subsequent examination of the effects of compounds on the ability of depolarization by potassium chloride or other means to alter intracellular calcium levels.

For another assay, the target named is Human Cav 2.2 channels (Homo sapiens, UniProt Q00975). Nature of the assay: Fluorescent assay for CaV2.2 channels using potassium depolarization (VIPR/FLIPR). Conditions: FLIPR data; for CAv2.2 IC50 Ratio closed/inact.: ratio closed/inactivated IC50. The text has this: Human Cav 2.2 channels were stably expressed in HEK293 cells along with alpha2-delta and beta subunits of voltage-gated calcium channels. An inwardly rectifying potassium channel (Kir2.3) was also expressed in these cells to allow more precise control of the cell membrane potential by extracellular potassium concentration. At low bath potassium concentration, the membrane potential is relatively negative, and is depolarized as the bath potassium concentration is raised. In this way, the bath potassium concentration can be used to regulate the voltage-dependent conformations of the channels. […] After the incubation period, Cav2.2 channel opening is triggered by addition of higher concentration of potassium (70 mM final concentration) to further depolarize the cell. The degree of state-dependent block can be estimated from the inhibitory potency of compounds after incubation in different potassium concentrations.
Calcium influx through Cav 2.2 channels is determined using a calcium sensitive fluorescent dye in combination with a fluorescent plate reader. Fluorescent changes were measured with either a VIPR (Aurora Instruments) or FLIPR (Molecular Devices) plate reader.
1. Seed cells in Poly-D-Lysine Coated 96 or 384-well plate and keep in a 3rC-IO % C02 incubator overnight.
2. Remove media, wash cells with 0.2 mL (96-well plate) or 0.05 mL (384-well plate) Dulbecco's Phosphate Buffered Saline (D-PBS) with calcium & magnesium (Invitrogen; 14040).
3. Add 0.1 mL (96-well plate) or 0.05 mL (384-well plate) of 4˜M fluor-4 (Molecular Probes; F-14202) and 0.02% Pluronic acid (Molecular Probes; P-3(00) prepared in D-PBS with calcium & magnesium (Invitrogen; 14040) supplemented with 10 mM Glucose & 10 mM HepeslNaOH; pH 7.4.
4. Incubate in the dark at 25° C. for 60-70 min.
5. Remove dye, wash cells with 0.1 mL (96-well plate) or 0.06 mL (384-well plate) of 4, 12, 25, or 30 mM Potassium Pre-polarization Buffer (PPB).
6. Add 0.1 mL (96-well plate) or 0.03 mL (384-well plate) of 4, 12, 25, 30 mM PPB with or without test compound.
7. Incubate in the dark at 25° C. for 30 min
8. Read cell plate on VIPR instrument, Excitation=480 nm, Emission=535 nm.
9. With VIPR continuously reading, add 0.1 mL (96-well plate) or 0.03 mL (384-well plate) of Depolarization Buffer (DB), which is 2× the final assay concentration, to the cell plate.

Setting [2] is: closed state, read-out: CAv1.2 IC50 Closed.
Where [3] appears, read: inactivated state, read-out: CAv1.2 IC50 Inact.
Setting [4] is: CAv3.2, closed state, read-out: CAv3.2 IC50 Closed.
The mark [5] stands for this setting: CAv3.2, inactivated state, read-out: CAv3.2 IC50 Inact.
[6] abbreviates: closed state, read-out: CAv2.2 IC50 Closed.
[7] abbreviates: inactivated state, read-out: CAv2.2 IC50 Inact.

Read-outs that look alike come from different tables or passages of the source.

CAv1.2, sequence (Q13936 whole entry): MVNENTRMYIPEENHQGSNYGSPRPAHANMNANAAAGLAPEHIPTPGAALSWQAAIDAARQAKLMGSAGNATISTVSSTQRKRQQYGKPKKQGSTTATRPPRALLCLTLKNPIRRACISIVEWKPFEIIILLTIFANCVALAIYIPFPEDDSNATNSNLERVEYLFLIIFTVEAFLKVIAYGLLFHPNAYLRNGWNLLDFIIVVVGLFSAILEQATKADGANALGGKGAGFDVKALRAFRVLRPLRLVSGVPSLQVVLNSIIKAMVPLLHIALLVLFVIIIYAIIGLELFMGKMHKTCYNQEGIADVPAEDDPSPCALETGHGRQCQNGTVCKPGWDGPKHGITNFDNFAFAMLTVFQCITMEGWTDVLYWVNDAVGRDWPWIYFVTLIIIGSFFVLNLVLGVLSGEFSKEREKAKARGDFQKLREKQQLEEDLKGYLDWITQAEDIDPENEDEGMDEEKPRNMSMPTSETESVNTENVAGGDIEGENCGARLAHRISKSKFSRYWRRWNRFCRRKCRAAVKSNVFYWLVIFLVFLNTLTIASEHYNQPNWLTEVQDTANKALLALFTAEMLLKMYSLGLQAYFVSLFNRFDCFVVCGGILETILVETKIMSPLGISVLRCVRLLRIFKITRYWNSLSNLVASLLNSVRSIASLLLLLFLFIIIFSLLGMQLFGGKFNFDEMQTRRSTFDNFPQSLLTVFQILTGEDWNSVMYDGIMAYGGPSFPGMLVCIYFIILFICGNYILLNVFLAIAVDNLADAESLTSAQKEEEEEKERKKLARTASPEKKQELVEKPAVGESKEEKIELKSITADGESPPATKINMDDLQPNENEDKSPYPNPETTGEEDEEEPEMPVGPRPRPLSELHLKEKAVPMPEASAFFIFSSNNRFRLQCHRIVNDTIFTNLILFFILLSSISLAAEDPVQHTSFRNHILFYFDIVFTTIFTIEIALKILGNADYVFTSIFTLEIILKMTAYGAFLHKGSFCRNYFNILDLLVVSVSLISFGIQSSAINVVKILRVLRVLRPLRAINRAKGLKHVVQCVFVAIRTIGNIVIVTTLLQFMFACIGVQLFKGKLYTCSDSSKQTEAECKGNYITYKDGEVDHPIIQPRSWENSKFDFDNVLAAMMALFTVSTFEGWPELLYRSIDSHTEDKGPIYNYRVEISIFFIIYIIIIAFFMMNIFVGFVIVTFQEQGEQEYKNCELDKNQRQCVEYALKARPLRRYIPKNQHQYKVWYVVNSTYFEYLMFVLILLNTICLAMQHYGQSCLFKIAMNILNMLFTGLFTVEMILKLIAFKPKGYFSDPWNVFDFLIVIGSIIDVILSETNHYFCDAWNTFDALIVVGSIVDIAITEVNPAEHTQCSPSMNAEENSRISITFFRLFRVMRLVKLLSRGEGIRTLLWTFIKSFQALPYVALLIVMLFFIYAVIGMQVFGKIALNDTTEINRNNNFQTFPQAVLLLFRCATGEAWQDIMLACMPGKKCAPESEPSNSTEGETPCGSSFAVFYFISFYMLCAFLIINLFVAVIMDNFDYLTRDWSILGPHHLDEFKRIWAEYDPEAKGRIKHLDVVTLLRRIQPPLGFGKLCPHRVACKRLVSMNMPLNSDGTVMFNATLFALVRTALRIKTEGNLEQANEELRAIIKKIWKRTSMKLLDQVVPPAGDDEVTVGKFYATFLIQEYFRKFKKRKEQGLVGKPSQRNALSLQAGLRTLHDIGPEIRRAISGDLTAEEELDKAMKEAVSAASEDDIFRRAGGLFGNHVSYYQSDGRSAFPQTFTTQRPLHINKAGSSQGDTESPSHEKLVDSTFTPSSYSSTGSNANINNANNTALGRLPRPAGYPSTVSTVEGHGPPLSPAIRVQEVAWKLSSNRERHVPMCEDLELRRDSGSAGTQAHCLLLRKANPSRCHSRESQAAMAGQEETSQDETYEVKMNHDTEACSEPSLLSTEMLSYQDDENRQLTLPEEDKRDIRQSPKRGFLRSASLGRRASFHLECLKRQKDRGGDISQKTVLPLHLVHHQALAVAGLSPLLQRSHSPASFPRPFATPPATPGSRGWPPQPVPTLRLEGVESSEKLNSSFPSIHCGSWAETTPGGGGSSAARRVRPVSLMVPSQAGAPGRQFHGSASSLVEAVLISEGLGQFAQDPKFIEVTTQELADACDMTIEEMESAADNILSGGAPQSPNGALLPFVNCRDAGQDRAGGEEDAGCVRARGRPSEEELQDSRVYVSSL
CAv1.2, sequence (P54289 25-1103 partner): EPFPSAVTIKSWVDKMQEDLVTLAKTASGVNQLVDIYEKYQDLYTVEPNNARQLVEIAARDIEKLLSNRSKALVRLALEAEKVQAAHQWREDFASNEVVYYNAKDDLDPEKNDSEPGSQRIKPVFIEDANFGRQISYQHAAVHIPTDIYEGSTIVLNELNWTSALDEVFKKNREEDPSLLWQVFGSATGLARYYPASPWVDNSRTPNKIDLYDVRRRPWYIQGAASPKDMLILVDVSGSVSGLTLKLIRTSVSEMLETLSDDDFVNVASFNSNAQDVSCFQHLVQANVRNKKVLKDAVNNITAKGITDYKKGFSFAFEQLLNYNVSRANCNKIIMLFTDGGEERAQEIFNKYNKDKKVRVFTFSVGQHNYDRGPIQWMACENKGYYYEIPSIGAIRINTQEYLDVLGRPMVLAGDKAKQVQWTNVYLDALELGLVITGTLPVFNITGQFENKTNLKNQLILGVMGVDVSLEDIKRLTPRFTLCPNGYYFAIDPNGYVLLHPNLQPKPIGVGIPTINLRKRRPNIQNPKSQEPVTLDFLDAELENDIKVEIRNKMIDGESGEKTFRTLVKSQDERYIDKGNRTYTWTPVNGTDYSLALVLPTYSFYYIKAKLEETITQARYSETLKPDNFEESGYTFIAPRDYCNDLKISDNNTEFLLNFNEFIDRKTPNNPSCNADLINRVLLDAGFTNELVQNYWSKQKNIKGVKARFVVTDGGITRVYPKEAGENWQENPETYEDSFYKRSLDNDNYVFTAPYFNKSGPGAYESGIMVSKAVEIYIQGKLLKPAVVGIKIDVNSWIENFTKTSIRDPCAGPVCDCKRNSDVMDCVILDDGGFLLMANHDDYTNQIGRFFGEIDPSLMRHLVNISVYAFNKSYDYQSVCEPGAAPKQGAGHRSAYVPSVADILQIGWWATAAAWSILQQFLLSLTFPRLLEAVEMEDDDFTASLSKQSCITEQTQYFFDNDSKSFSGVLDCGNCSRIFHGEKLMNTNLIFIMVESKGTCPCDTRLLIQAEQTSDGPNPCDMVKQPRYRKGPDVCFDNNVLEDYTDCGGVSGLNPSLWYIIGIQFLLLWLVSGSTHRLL
CAv1.2, sequence (Q08289 whole entry partner): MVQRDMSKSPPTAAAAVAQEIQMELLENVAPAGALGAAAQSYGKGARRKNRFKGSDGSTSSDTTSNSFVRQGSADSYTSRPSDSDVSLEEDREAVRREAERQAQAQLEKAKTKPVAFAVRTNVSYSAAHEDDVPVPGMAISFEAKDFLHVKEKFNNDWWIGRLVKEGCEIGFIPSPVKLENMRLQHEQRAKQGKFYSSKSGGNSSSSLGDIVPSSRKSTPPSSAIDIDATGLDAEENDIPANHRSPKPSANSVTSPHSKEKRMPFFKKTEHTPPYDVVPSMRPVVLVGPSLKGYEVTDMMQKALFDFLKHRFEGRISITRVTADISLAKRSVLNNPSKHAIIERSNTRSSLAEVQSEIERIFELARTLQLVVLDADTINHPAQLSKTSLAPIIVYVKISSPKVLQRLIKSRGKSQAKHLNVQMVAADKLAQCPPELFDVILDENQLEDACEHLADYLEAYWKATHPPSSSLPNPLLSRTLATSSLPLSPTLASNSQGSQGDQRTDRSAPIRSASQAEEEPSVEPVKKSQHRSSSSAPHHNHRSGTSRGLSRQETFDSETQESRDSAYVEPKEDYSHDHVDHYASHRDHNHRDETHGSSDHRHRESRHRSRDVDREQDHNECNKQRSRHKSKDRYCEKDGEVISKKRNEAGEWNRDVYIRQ

As to “2-(methylsulfonyl)-6-(trifluoromethyl)- N-(((1S,3S)-3- (3-(trifluoromethyl) phenylsulfonyl)cyclobutyl) methyl)nicotinamide [Compound 382]”, the IC50 in assay [1] was found to be 1710 nM.

As for “2-chloro-6-(trifluoromethyl)-N- ((1R,4R)-4-(3- (tritluoromethyl)phenylsulfonyl) cyclohexyl)nicotinamide [Compound 187]”, in assay [1], the IC50 was 7000 nM. Same read-out and setting: with “2-chloro-6-(trifluoromethyl)-N- ((1S,4S)-4-(3- (trifluoromethyl)phenylsulfonyl) cyclohexyl)nicotinamide [Compound 200]” the figure was 1020 nM; with “2-fluoro-N-((1R,4R)-4-(3- (trifluoromethyl)phenylsulfonyl) cyclohexyl)isonicotinamide [Compound 188]”, 5610 nM. On the same count and under the same terms, the figure for “3-(methylsulfonyl)-5-(trifluoromethyl)- N-(((1S,3S)- 3-(3-(trifluoromethyl) phenylsulfonyl)cyclobutyl) methyl)picolinamide [Compound 388]” is 1060 nM; for “4,5-dichloro-N-((1R,4R)-4-(3- (trifluoromethyl)phenylsulfonyl) cyclohexyl)isothiazole-3- carboxamide [Compound 183]” it is 1990 nM; for “6-(trifluoromethyl)-N-((1S,4S)-4- (3-(trifluoromethyl)phenylsulfonyl) cyclohexyl)nicotinamide [Compound 199]” it is 1250 nM. `O=C(CCC(F)(F)F)NC1CCC(S(=O)(=O)c2cccc(C(F)(F)F)c2)CC1` (stereo not shown) [Compound 12, 4,4,4-trifluoro-N-(4-(3-(trifluoromethyl)phenylsulfonyl)cyclohexyl)butanamide]: in assay [1], the IC50 amounted to 1940 nM.

In the case of `O=C(NC[C@H]1CC[C@@H](S(=O)(=O)c2cccc(C(F)(F)F)c2)CC1)c1cc(C(F)(F)F)n[nH]1` [Compound 34, 3-(trifluoromethyl)-N-(((1S,4S)-4-(3-(trifluoromethyl)phenylsulfonyl)cyclohexyl)methyl)-1H-pyrazole-5-carboxamide], in assay [1], the IC50 was determined as 640 nM.

In the case of `O=C(N[C@H]1CC[C@@H](S(=O)(=O)c2cccc(C(F)(F)F)c2)CC1)c1cc(F)cc(Cl)c1` [Compound 40, 3-chloro-5-fluoro-N-((1S,4S)-4-(3-(trifluoromethyl)phenylsulfonyl)cyclohexyl)benzamide], the half-maximal inhibitory concentration (IC50) in assay [1] came to 170 nM. Consider `O=C(N[C@H]1CC[C@@H](S(=O)(=O)c2cccc(C(F)(F)F)c2)CC1)C1CCOCC1` [Compound 44, N-((1S,4S)-4-(3-(trifluoromethyl)phenylsulfonyl)cyclohexyl)tetrahydro-2H-pyran-4-carboxamide], for which, in assay [1], the IC50 turned out to be 5930 nM. On to `O=C(CN[C@H]1CC[C@@H](S(=O)(=O)c2cccc(C(F)(F)F)c2)CC1)N1CCOCC1` [Compound 53, 1-morpholino-2-((1S,4S)-4-(3-(trifluoromethyl)phenylsulfonyl)cyclohexylamino)ethanone], for which the IC50 in assay [1] came out at 4720 nM.

Take `O=C(N[C@H]1CC[C@H](S(=O)(=O)c2cccc(C(F)(F)F)c2)CC1)C1CCOCC1` [Compound 63, N-((1R,4R)-4-(3-(trifluoromethyl)phenylsulfonyl)cyclohexyl)tetrahydro-2H-pyran-4-carboxamide]: the IC50 in assay [1] was 9980 nM. As to `CCN(CC)C(=O)CN[C@H]1CC[C@H](S(=O)(=O)c2cccc(C(F)(F)F)c2)CC1` [Compound 71, N,N-diethyl-2-((1R,4R)-4-(3-(trifluoromethyl)phenylsulfonyl)cyclohexylamino)acetamide], in assay [1], the IC50 was 5870 nM. Still for that read-out and setting: with `CC(C)NC(=O)CN[C@H]1CC[C@H](S(=O)(=O)c2cccc(C(F)(F)F)c2)CC1` [Compound 72, N-isopropyl-2-((1R,4R)-4-(3-(trifluoromethyl)phenylsulfonyl)cyclohexylamino)acetamide] the figure was 8580 nM. The same measure, in the same setting: with `O=C(CN[C@H]1CC[C@H](S(=O)(=O)c2cccc(C(F)(F)F)c2)CC1)Nc1ccccn1` [Compound 77, N-(pyridin-2-yl)-2-((1R,4R)-4-(3-(trifluoromethyl)phenylsulfonyl)cyclohexylamino)acetamide] the figure was 740 nM.

With `CC1(CNC(=O)c2nc3ccc(C(F)(F)F)cc3[nH]2)CCC(F)(S(=O)(=O)c2cccc(C(F)(F)F)c2)CC1` (stereo not shown) [Compound 156, N-((4-fluoro-1-methyl-4-(3-(trifluoromethyl)phenylsulfonyl)cyclohexyl)methyl)-6-(trifluoromethyl)-1H-benzo[d]imidazole-2-carboxamide], the IC50 in assay [1] was determined as 1230 nM. Still for that read-out and setting: the figure for `COc1cc(C(=O)NCC2(C)CCC(F)(S(=O)(=O)c3cccc(C(F)(F)F)c3)CC2)ccn1` (stereo not shown) [Compound 157, N-((4-fluoro-1-methyl-4-(3-(trifluoromethyl)phenylsulfonyl)cyclohexyl)methyl)-2-methoxyisonicotinamide] is 1030 nM. On the same count and under the same terms, with `CC(C)(C)NCC(=O)N[C@H]1CC[C@H](CS(=O)(=O)c2cccc(C(F)(F)F)c2)CC1` [Compound 160, 2-(tert-butylamino)-N-((1R,4R)-4-((3-(trifluoromethyl)phenylsulfonyl)methyl)cyclohexyl)acetamide] the figure was 1990 nM; with `CN(CC(=O)N[C@H]1CC[C@H](CS(=O)(=O)c2cccc(C(F)(F)F)c2)CC1)C(C)(C)C` [Compound 161, 2-(tert-butyl(methyl)amino)-N-((1R,4R)-4-((3-(trifluoromethyl)phenylsulfonyl)methyl)cyclohexyl)acetamide], 2450 nM.

`CC(C)(C[C@H]1C[C@@H](NC(=O)c2ncc(C(F)(F)F)cc2S(C)(=O)=O)C1)S(=O)(=O)c1cccc(C(F)(F)F)c1` [Compound 730]: the 50% inhibitory concentration (IC50) is not below 10 µM on CAv1.2 (setting [2]); not below 10 µM at CAv1.2 (setting [3]); not below 10 µM on T-type calcium channel (setting [4]); 10 µM at T-type calcium channel (setting [5]); 9.1 µM at Human Cav 2.2 channels (setting [6]); 0.46 µM on Human Cav 2.2 channels (setting [7]). Also, the “CAv3.2 IC50 Ratio closed/inact.” value on T-type calcium channel came out at 1. On Human Cav 2.2 channels, the “CAv2.2 IC50 Ratio closed/inact.” value came out at 19.8. Take `CC(C)(C[C@H]1C[C@@H](NC(=O)CC2(N)CCCCC2)C1)S(=O)(=O)c1cccc(C(F)(F)F)c1` [Compound 739]: the IC50 was 8.86 µM at CAv1.2 (setting [2]); not below 10 µM at CAv1.2 (setting [3]); not below 10 µM on T-type calcium channel (setting [4]); 10 µM at T-type calcium channel (setting [5]); 2.89 µM at Human Cav 2.2 channels (setting [6]); 1 µM on Human Cav 2.2 channels (setting [7]). Besides, the “CAv1.2 IC50 Ratio closed/inact.” value on CAv1.2 (ratio closed/inactivated IC50) was 0.9. In addition, the “CAv3.2 IC50 Ratio closed/inact.” value at T-type calcium channel came out at 1. Besides, the “CAv2.2 IC50 Ratio closed/inact.” value at Human Cav 2.2 channels amounted to 2.9.

The values above are taken from US20120245137A1 (Zalicus Pharmaceuticals Ltd., priority 2009, published 2012).
